Like-named read-outs stand apart in the source and are kept apart here.
Target: T1, APOL1 G1 (Homo sapiens, UniProt O14791, I384M/S342G)
T1 sequence (O14791 28-398 S342G/I384M): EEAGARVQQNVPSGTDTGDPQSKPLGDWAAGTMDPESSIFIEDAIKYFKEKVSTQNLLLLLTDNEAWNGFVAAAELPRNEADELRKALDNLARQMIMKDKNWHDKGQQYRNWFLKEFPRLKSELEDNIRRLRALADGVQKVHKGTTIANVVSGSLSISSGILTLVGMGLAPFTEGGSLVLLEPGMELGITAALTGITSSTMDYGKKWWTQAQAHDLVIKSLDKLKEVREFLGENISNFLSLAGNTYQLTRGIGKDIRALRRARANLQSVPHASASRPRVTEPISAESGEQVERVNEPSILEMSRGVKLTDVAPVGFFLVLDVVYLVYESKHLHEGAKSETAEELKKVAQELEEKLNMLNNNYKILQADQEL
Assay: MultiTox-Fluor Multiplex Cytotoxicity Assay, tet-inducible APOL1 G1 T-REx-HEK293 cells
Type: cell-based
Parameters: expressed in transfected cells; host or cells: T-REx HEK293, clone G1 DC3.25 (pAAVS1-Puro-APOL1 G1)
Details: for Emax: read-out: Multi-Tox Assay Max Activity (%)
In short: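 T-REx-HEK293 cells carrying tet-inducible APOL1 G1 induced with 50 ng/mL tet alongside compound (top 10 µM, 10-point 3-fold, duplicate) for 24 h at 37 °C. MultiTox-Fluor dead/live protease fluorescence ratio read after 30 min; normalized to no-tet (100% viability) and tet-treated (0%) controls, then curve-fitted.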

[1] = HEK293, Multi-Tox Assay, APOL1 variant (G0/G1/G2) of the HEK293 cells not given, read-out: Multi-Tox Assay IC90
[2] = Multi-Tox Assay, APOL1 variant not given

SMILES	IC90 [1] [nM]	Multi-Tox Assay Max Activity (%) [2] [%]	IC90 (HEK293, read-out: Multi-Tox Assay IC90 (nM)) [nM]	Emax [%]	Emax [2] [%]
Cc1nn(CCO)cc1[C@@H]1C[C@]2(C[C@H](C)N1)OCCc1cc(Cl)sc12 (racemic) [Compound 158]	> 500	90.4			
Cc1nc([C@@H]2C[C@]3(C[C@H](C)N2)OCCc2cc(Cl)sc23)cn1C (racemic) [Compound 159]	> 500	92.2			
C[C@H]1C[C@@]2(C[C@@H](c3cnccc3O)N1)OCCc1cc(Cl)sc12 (racemic) [Compound 160]	> 500	94.3			
Cc1nc[nH]c1[C@@H]1C[C@]2(C[C@H](C)N1)OCCc1cc(Cl)sc12 (racemic) [Compound 161]	> 500	92.4			
CC(C)c1c[nH]c([C@@H]2C[C@]3(C[C@H](C)N2)OCCc2cc(Cl)sc23)n1 (racemic) [Compound 162]	> 500	92.0			
C[C@H]1C[C@@]2(C[C@@H](c3cnn4c3OCCC4)N1)OCCc1cc(Cl)sc12 (racemic) [Compound 163]	> 500	92.7			
Cc1nccnc1[C@@H]1C[C@]2(C[C@H](C)N1)OCCc1cc(Cl)sc12 (racemic) [Compound 164]	> 500	91.7			
C[C@H]1C[C@@]2(C[C@@H](c3ncc(C(F)(F)F)[nH]3)N1)OCCc1cc(Cl)sc12 (racemic) [Compound 165]	> 500	92.0			
COc1cccc([C@@H]2C[C@]3(C[C@H](C)N2)OCCc2cc(Cl)sc23)c1O (racemic) [Compound 166]	> 500	96.7			
Cc1cccnc1[C@@H]1C[C@]2(C[C@H](C)N1)OCCc1cc(Cl)sc12 (racemic) [Compound 167]	> 500	89.7			
C[C@H]1C[C@@]2(C[C@@H](c3cccc4cn[nH]c34)N1)OCCc1cc(Cl)sc12 (racemic) [Compound 168]	> 500	89.0			
C[C@H]1C[C@@]2(C[C@@H](c3n[nH]c4ccccc34)N1)OCCc1cc(Cl)sc12 (racemic) [Compound 169]	> 500	86.8			
Cc1nc2c([C@@H]3C[C@]4(C[C@H](C)N3)OCCc3cc(Cl)sc34)cccc2o1 (racemic) [Compound 170]	> 500	89.7			
C[C@H]1C[C@@]2(C[C@@H](c3ncnn3C)N1)OCCc1cc(Cl)sc12 (racemic) [Compound 171]	> 500	71.8			
C[C@H]1C[C@@]2(C[C@@H](c3ncccc3O)N1)OCCc1cc(Cl)sc12 (racemic) [Compound 172]	> 500	52.0			
C[C@@H]1C[C@]2(C[C@H](C)N1)OCC(O)c1cc(Cl)sc12 (mixture of isomers) [Compound 205, (2R,6S)-2-chloro-2',6'-dimethyl-spiro[4,5-dihydrothieno[2,3-c]pyran-7,4'-piperidine]-4-ol]			50 to 500	99.3	
Cc1cc2c(s1)C1(CC(C)NC(c3cn(C)nn3)C1)OCC2 (single isomer, unassigned) [Compound 3]	< 50				99.7
CCc1cc2c(s1)CCOC21CC(C)NC(c2cn(C)nn2)C1 (single isomer, unassigned) [Compound 4]	< 50				99.3
CCc1cc2c(s1)C1(CC(C)NC(c3cn(C)nn3)C1)OCC2 (single isomer, unassigned) [Compound 6]	< 50				99.7
CCc1cc2c(s1)C(C)COC21C[C@@H](c2cn(C)nn2)N[C@@H](C)C1 (single isomer, unassigned) [Compound 10]	< 50	99.7			
CC1COC2(C[C@@H](c3cn(C)nn3)N[C@@H](C)C2)c2cc(Cl)sc21 (single isomer, unassigned) [Compound 12]	< 50	99.3			
